≈ marks a conversion by molar mass, not a printed value. Where “and” joins values, the source holds several entries; their conditions need not be identical. Equal entries are not always repeated.
Key:
Experiment in all cases: ≥ marks a high value that may be exact or a test limit, other limits are often not marked, values filed in µg/mL are converted to µM
[1] = tested on: Klebsiella pneumoniae NCIMB 13218
[2] = tested on: Salmonella enterica subsp. enterica serovar Typhimurium LT2
[3] = tested on: Escherichia coli NCIMB 11843
[4] = tested on: Staphylococcus aureus RF122
[5] = tested on: Cronobacter muytjensii ATCC 51329
[6] = tested on: Cronobacter sakazakii DSM 4485
[7] = tested on: Staphylococcus aureus Newman
[8] = tested on: Pseudomonas fluorescens NCIMB 9046
[9] = tested on: Staphylococcus aureus RN4220
[10] = tested on: Staphylococcus aureus NCTC 8325-4
[11] = tested on: Staphylococcus aureus SA113
[12] = tested on: Cronobacter sakazakii ATCC BAA-894
[13] = tested on: Cronobacter sakazakii DPC 6440
[14] = tested on: Staphylococcus epidermidis ATCC 12228
[15] = tested on: Bacillus subtilis PS832
[16] = tested on: Klebsiella aerogenes ATCC 13048
[17] = tested on: Escherichia coli DL7
[18] = tested on: Pseudomonas aeruginosa LCCI
[19] = tested on: Escherichia coli ATCC 25922
[20] = tested on: Staphylococcus aureus ATCC 29213
[21] = tested on: Salmonella enterica subsp. enterica serovar Typhimurium C77-31
[22] = tested on: Pseudomonas aeruginosa ATCC 10419
[23] = tested on: Pseudomonas aeruginosa LCCE
[24] = tested on: Pseudomonas aeruginosa ATCC 21625
[25] = tested on: Pseudomonas aeruginosa ATCC 21630
[26] = tested on: Pseudomonas aeruginosa LCGE
[27] = tested on: Pseudomonas aeruginosa ATCC 27853
[28] = tested on: Pseudomonas aeruginosa LC

CC(C)C[C@H](NC(=O)CNC(=O)[C@H](CCC(N)=O)NC(=O)[C@H](Cc1cnc[nH]1)NC(=O)[C@H](CCCCN)NC(=O)[C@H](C)N)C(=O)N1CCC[C@H]1C(=O)N[C@@H](CCC(N)=O)C(=O)N[C@@H](CCC(=O)O)C(=O)O [AKHQGLPQE]
MIC [1]: ≥ 2500 µM | MIC [2]: ≥ 2500 µM | MIC [3]: ≥ 2500 µM | MIC [4]: ≥ 2500 µM | MIC [5]: ≥ 1250 µM | MIC [6]: ≥ 1250 µM | MIC [7]: ≥ 2500 µM | MIC [8]: ≥ 2500 µM | MIC [9]: ≥ 2500 µM | MIC [10]: ≥ 1250 µM | MIC [11]: ≥ 2500 µM | MIC [12]: ≥ 1250 µM | MIC [13]: ≥ 1250 µM

CC(C)C[C@H](NC(=O)CNC(=O)[C@H](C)NC(=O)[C@H](CCCN=C(N)N)NC(=O)[C@H](Cc1cnc[nH]1)NC(=O)CNC(=O)CN)C(=O)N[C@@H](CCC(N)=O)C(=O)N[C@@H](Cc1ccccc1)C(=O)N1CCC[C@H]1C(=O)N[C@H](C(=O)NCC(=O)N[C@@H](CCCN=C(N)N)C(=O)N[C@H](C(=O)N[C@@H](Cc1cnc[nH]1)C(=O)N[C@@H](CCCN=C(N)N)C(=O)N[C@@H](CC(C)C)C(=O)N[C@@H](CC(C)C)C(=O)N[C@@H](CCCN=C(N)N)C(=O)N[C@@H](CCCCN)C(N)=O)C(C)C)C(C)C [GGHRAGLQFPVGRVHRLLRK]
MIC [14]: 16 µM (≈ 36.1 µg/mL) | MIC [15]: 4 µM (≈ 9.01 µg/mL) | MIC [16]: ≥ 32 µM | MIC [17]: 16 µM and 8 µM

CC[C@H](C)[C@H](NC(=O)[C@H](CCCCN)NC(=O)[C@H](CCCCN)NC(=O)[C@H](CC(C)C)NC(=O)[C@H](CCCN=C(N)N)NC(=O)[C@H](CCCCN)NC(=O)[C@H](CCCN=C(N)N)NC(=O)[C@H](Cc1ccccc1)NC(=O)[C@H](CCCCN)NC(=O)[C@H](CCCCN)NC(=O)[C@H](CCCN=C(N)N)NC(=O)[C@H](CC(C)C)NC(=O)[C@H](CCCN=C(N)N)NC(=O)[C@H](CCCN=C(N)N)NC(=O)[C@H](Cc1ccccc1)NC(=O)[C@@H](N)CCCN=C(N)N)C(N)=O [RFRRLRKKFRKRLKKI]
MIC [14]: 32 µM (≈ 71.3 µg/mL) | MIC [18]: ≥ 256 µM | MIC [19]: 64 µM (≈ 143 µg/mL) | MIC [20]: 128 µM (≈ 285 µg/mL) | MIC [21]: ≥ 128 µM | MIC [22]: ≥ 256 µM | MIC [23]: ≥ 256 µM | MIC [24]: ≥ 256 µM | MIC [25]: ≥ 256 µM | MIC [26]: ≥ 256 µM | MIC [27]: 256 µM (≈ 571 µg/mL) | MIC [28]: ≥ 64 µM
